Literature values as cited in patent publication US5138036A, “Isolation and structural elucidation of the cytostatic cyclodepsipeptide dolastatin 14” (Arizona Board of Regents acting on behalf of Arizona State …, priority 1989, dated 1992).

Experiments:
B16 melanoma = conditions: 1.44-11.1 μg/kg
[1] = system: P388 lymphocytic leukemia (PS system); conditions: 1-4 μg/kg
human melanoma xenograph = conditions: 3.25-26 μg/kg

With `CC[C@H](C)[C@@H]([C@@H](CC(=O)N1CCC[C@H]1[C@H](OC)[C@@H](C)C(=O)N[C@@H](Cc1ccccc1)c1nccs1)OC)N(C)C(=O)[C@@H](NC(=O)[C@H](C(C)C)N(C)C)C(C)C` [dolastatin 10] as the compound, how does the life extension (B16 melanoma) read?
The life extension was 42-138%.

And the life extension [1]?
The life extension was 69-102%.

And the curative response (human melanoma xenograph)?
Its curative response is 17-67%.
